US7829665B2 (priority 2005, dated 2010)
Where two headings read alike, the source gives them in different places.

Columns and labels:
[1] = from C=CCCCCC[C@H](NC(=O)OC(C)(C)C)C(=O)N1CCC[C@H]1C(=O)N[C@]1(C(=O)OCC)C[C@H]1C=C; rcm bond; Hoveyda 1st generation catalyst; 1,2-dichloroethane; 10.0 mM; 50.0 °C; 16.0 h
[2] = test system: HCV sub-genomic replicon in GS4.3 cells (HuH-7 hepatoma cells); assay: Quantitation by ELISA of Neomycin phosphotransferase II (NPTII) in the HCV sub-genomic replicon, GS4.3; format: cell-based, hepatitis C virus; conditions: Hepatitis C virus, Huh-7; GS4.3 cells, 72 h incubation, NPTII ELISA; read-out: Replicon EC50
Method in brief: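 HuH-7 GS4.3 cells carrying HCV sub-genomic replicon 1377/NS3-3′, treated 72 h at 37 °C without G418 with 3-fold dilutions from 10 μM to 56 pM (1% DMSO). NPTII in cell lysates measured by direct ELISA with TMB readout at 450 nm. EC50 from 4-parameter fit of percent DMSO-control signal.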

[3] = biological target: T1, full-length NS3/NS4A-2 (HCV NS3 protease) (Hepatitis C virus genotype 1a, UniProt P27958); assay: NS3-NS4 protease assay / NS3 inhibition assay (RETS1 substrate, fluorescence kinetic read); format: biochemical
T1 construct: Recombinant E. coli or Baculovirus full-length NS3 was diluted to 3.33 μM with assay buffer; made in house; host or cells: E. coli or baculovirus (BV) expression system
T1 sequence (P27958 1027-1657): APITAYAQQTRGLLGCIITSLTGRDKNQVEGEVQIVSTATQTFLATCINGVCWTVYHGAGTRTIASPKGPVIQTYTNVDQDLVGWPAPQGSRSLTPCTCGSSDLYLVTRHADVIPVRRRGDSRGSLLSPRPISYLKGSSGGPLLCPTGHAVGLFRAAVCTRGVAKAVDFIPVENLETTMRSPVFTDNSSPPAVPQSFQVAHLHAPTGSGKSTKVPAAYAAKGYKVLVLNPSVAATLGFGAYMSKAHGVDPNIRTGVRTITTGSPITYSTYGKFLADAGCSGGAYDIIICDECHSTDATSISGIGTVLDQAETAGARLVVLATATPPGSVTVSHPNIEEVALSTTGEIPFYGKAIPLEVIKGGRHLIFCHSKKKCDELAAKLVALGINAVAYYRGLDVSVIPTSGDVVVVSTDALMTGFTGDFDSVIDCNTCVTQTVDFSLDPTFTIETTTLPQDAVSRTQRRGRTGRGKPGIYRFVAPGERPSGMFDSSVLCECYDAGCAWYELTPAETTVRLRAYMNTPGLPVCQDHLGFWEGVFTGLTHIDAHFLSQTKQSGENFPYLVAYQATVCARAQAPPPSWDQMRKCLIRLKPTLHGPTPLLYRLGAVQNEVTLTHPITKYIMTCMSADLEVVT
Method in brief: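 Full-length NS3 from E. coli (2 nM in assay) or baculovirus (3 nM) was precomplexed with excess NS4A-2 peptide, then preincubated 10 min at room temperature with serially diluted compounds starting at 50 microM. Reaction was started with RETS1 substrate at 8 μM before addition and read kinetically for 30 min (ex 335/em 495 nm). Four-parameter IC50s were converted to Ki by Cheng-Prusoff using Km 2.03 μM (E. coli) or 1.74 μM (BV).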

[4] = recombinant E. coli or Baculovirus full-length NS3 with NS4A-2, read-out: NS3-NS4 IC50

Row | SMILES | ring closure, yield of all isomers [1] | EC50 [2] | IC50 [3, 4] | IC50 [3]
1 | CCOC(=O)[C@@]12C[C@H]1C=CCCCCC[C@H](NC(=O)OC(C)(C)C)C(=O)N1CCC[C@H]1C(=O)N2 | 76% | – | – | –
2 | CC(C)(C)OC(=O)N[C@H]1CCCC/C=C\[C@@H]2C[C@@]2(C(=O)NS(=O)(=O)C2CC2)NC(=O)[C@@H]2C[C@@H](OC(=O)N3Cc4cccc(F)c4C3)CN2C1=O [Compound 267] | – | < 100 nM | < 100 nM | –
3 | CC(C)(C)OC(=O)N[C@H]1CCCCC/C=C\[C@@H]2C[C@@]2(C(=O)NS(=O)(=O)C2CC2)NC(=O)[C@@H]2C[C@@H](OC(=O)N3Cc4cccc(Br)c4C3)CN2C1=O [Compound 160] | – | < 100 nM | < 100 nM | –
4 | CC(C)(C)OC(=O)N[C@H]1CCCCC/C=C\[C@@H]2C[C@@]2(C(=O)NS(=O)(=O)c2cc(Cl)sc2Cl)NC(=O)[C@@H]2C[C@@H](OC(=O)N3Cc4cccc(F)c4C3)CN2C1=O [Compound 162] | – | < 100 nM | < 100 nM | –
5 | CC(C)(C)CN[C@H]1CCCCC/C=C\[C@@H]2C[C@@]2(C(=O)NS(=O)(=O)C2CC2)NC(=O)[C@@H]2C[C@@H](OC(=O)N3Cc4cccc(F)c4C3)CN2C1=O [Compound 920] | – | < 100 nM | < 100 nM | –
6 | N[C@H]1CCCCC/C=C\[C@@H]2C[C@@]2(C(=O)NS(=O)(=O)c2cccs2)NC(=O)[C@@H]2C[C@@H](OC(=O)N3Cc4cccc(Cl)c4C3)CN2C1=O [Compound 169] | – | < 10000 nM | – | < 100 nM
7 | CC(C)(C)OC(=O)N[C@H]1COCCC/C=C\[C@@H]2C[C@@]2(C(=O)O)NC(=O)[C@@H]2C[C@@H](OC(=O)N3Cc4cccc(Cl)c4C3)CN2C1=O [Compound 1024] | – | < 100 nM | < 100 nM | –
8 | CC(C)(C)OC(=O)N[C@H]1CCC(F)(F)CC/C=C\[C@@H]2C[C@@]2(C(=O)O)NC(=O)[C@@H]2C[C@@H](OC(=O)N3CCc4ccccc4C3)CN2C1=O [Compound 1013] | – | < 100 nM | < 100 nM | –
9 | O=C(N[C@H]1CCC(F)(F)CC/C=C\[C@@H]2C[C@@]2(C(=O)NS(=O)(=O)C2CC2)NC(=O)[C@@H]2C[C@@H](OC(=O)N3Cc4cccc(F)c4C3)CN2C1=O)OC1CCCC1 [Compound 1004] | – | < 100 nM | < 100 nM | –
10 | CC(C)(C)OC(=O)N[C@H]1CCCCC/C=C\[C@@H]2C[C@@]2(C(=O)NCc2cccc(C(=O)O)c2)NC(=O)[C@@H]2C[C@@H](OC(=O)N3Cc4cccc(F)c4C3)CN2C1=O [Compound 617] | – | > 10000 nM | < 100 nM | –
11 | CCC(C)(C)Nc1c(N[C@H]2CCCCC/C=C\[C@@H]3C[C@@]3(C(=O)NS(=O)(=O)C3CC3)NC(=O)[C@@H]3C[C@@H](OC(=O)N4Cc5cccc(F)c5C4)CN3C2=O)c(=O)c1=O [Compound 194] | – | < 10000 nM | < 100 nM | –
